The values that follow come from the RepoRT retention time repository (doi:10.1016/j.aca.2011.01.006).

The nature of the data set: Waters SunFire C18, 150 × 2.1 mm, 3.5 µm, 35 °C, 0.3 mL/min, estimated dead time 1.1 min; A: water + 0.1% formic acid; B: acetonitrile + 0.1% formic acid; gradient (min/%B) 0/20 5/20 20/50 25/100. The note with it: stereoisomer not certain.

`Cn1c(=O)c2[nH]cnc2n(C)c1=O`: the LC retention time is 1.9 min.
For `CC[N+](C)(CC)CCOC(=O)C(O)(c1ccccc1)C1CCCCC1` (stereo not given), the LC retention time is 9 min.
As to `CC1(C)OC(=O)C(OCC2CC2)=C1c1ccc(S(C)(=O)=O)cc1`, the LC retention time is 20.4 min.
The value for `Cn1c(=O)c2c(ncn2CCO)n(C)c1=O` was 2 min; that for `Cc1cc(NC(=O)C2=C(O)c3ccccc3S(=O)(=O)N2C)no1` was 21.4 min.
Turning to `Cn1c(=O)c2c(ncn2C)n(C)c1=O`, the LC retention time is 2.4 min.
The value for `CC12CCC(=O)C=C1C=CC1C2CCC2(C)C1CCC2(O)CCC(=O)O` (stereo not given) was 16.1 min; that for `CCN(CC)CC(=O)Nc1c(C)cccc1C` was 1.8 min.
Take `CCCc1nc(C)c2c(=O)[nH]c(-c3cc(S(=O)(=O)N4CCN(CC)CC4)ccc3OCC)nn12`: the LC retention time was 3.4 min.
Regarding `O=C(c1ccccc1)c1ccc2n1CCC2C(=O)O` (stereo not given), the LC retention time was 16.3 min.
Regarding `CCN(CCO)CCn1c(Cc2ccccc2)nc2c1c(=O)n(C)c(=O)n2C`, the LC retention time is 1.5 min.
To `Cc1cccc(C)c1NC1=NCCCS1` belongs 1.8 min; to `CCCN(CCC)S(=O)(=O)c1ccc(C(=O)O)cc1`, 21.3 min; to `CC(C)c1c(CN(C)C(C)Cc2ccccc2)n(C)n(-c2ccccc2)c1=O` (stereo not given), 10.8 min.
`Cn1c(=O)c2c(ncn2CC(O)CO)n(C)c1=O` (stereo not given): the LC retention time is 1.9 min.
With `CCC(=O)NS(=O)(=O)c1ccc(-c2c(-c3ccccc3)noc2C)cc1`, the LC retention time is 21.8 min.
With `CC(=O)SC1CC2=CC(=O)CCC2(C)C2CCC3(C)C(CCC34CCC(=O)O4)C12` (stereo not given), the LC retention time was 22 min.
In the case of `CCCc1nn(C)c2c(=O)[nH]c(-c3cc(S(=O)(=O)N4CCN(C)CC4)ccc3OCC)nc12`, the LC retention time is 8.2 min.
With `Cc1cccc(C)c1NC(=O)C1CCCCN1C` (stereo not given), the LC retention time is 1.8 min.
As for `CN1C2CCC1C(C(=O)O)C(OC(=O)c1ccccc1)C2` (stereo not given), the LC retention time is 2.6 min.
Take `CCCn1cnc2c1c(=O)n(CCCCC(C)=O)c(=O)n2C`: the LC retention time was 12.1 min.
To `CC(C)(C)NCC(O)COc1nsnc1N1CCOCC1` (stereo not given) belongs 1.8 min; to `CN1CC(=O)N2C(Cc3c([nH]c4ccccc34)C2c2ccc3c(c2)OCO3)C1=O` (stereo not given), 17.4 min.
For `CN(C)CCCOc1nn(Cc2ccccc2)c2ccccc12`, the LC retention time was 9.9 min.
On to `CN(C)CCN(Cc1ccccc1)c1ccccn1`, for which the LC retention time was 1.9 min.
